Source: patent US20250296936A1, “SARS-COV2 MAIN PROTEASE INHIBITORS” (Gilead Sciences, Inc., priority 2024, published 2025)
Where two headings read alike, the source gives them in different places.

System: SARS-CoV-2-NLuc in A549-hACE2 cells
Assay: microbe, parasite or virus in culture
Type: cell-based, SARS Coronavirus 2
Settings: Severe acute respiratory syndrome coronavirus, 48 h

| SMILES | EC50 (read-out: MPro EC50 (nM)) | EC50 (read-out: MPro EC50) |
| --- | --- | --- |
| N#CC1(Cn2c(=O)n(-c3cncc4ccc(F)cc34)c(=O)c3oc(-c4ccccc4Cl)cc32)CC1 [Example 52] | 11.8 nM | – |
| Cc1cncc(-n2c(=O)c3oc(-c4ccccc4Cl)cc3n(CC3(C#N)CC3)c2=O)c1 [Example 53] | 12.8 nM | – |
| N#CC1(Cn2c(=O)n(-c3cncc4ccccc34)c(=O)c3oc(-c4ccc(F)cc4Cl)cc32)CC1 [Example 54] | 18 nM | – |
| COc1cc(-c2cc3[nH]c(=O)n(-c4cncc5cccnc45)c(=O)c3o2)c(Cl)cc1F [Example 55, 6-(2-chloro-4-fluoro-5-methoxyphenyl)-3-(1,6-naphthyridin-8-yl)furo[3,2-d]pyrimidine-2,4(1H,3H)-dione] | – | 250 nM |
| COc1cc(-c2cc3[nH]c(=O)n(-c4cncc(C)c4)c(=O)c3o2)c(Cl)cc1F [Example 56] | 195 nM | – |
| COc1cc(-c2cc3c(o2)c(=O)n(-c2cncc4cccnc24)c(=O)n3CCC#N)c(Cl)cc1F [Example 57, 3-(6-(2-chloro-4-fluoro-5-methoxyphenyl)-3-(1,6-naphthyridin-8-yl)-2,4-dioxo-3,4-dihydrofuro[3,2-d]pyrimidin-1(2H)-yl)propanenitrile] | – | 19.7 nM |
| COc1cc(-c2cc3c(o2)c(=O)n(-c2cncc(C)c2)c(=O)n3CCC#N)c(Cl)cc1F [Example 58] | 19.9 nM | – |
